Experimental data from ChEMBL document CHEMBL5104160, “In vitro and in vivo neuroprotective effect of novel mPGES-1 inhibitor in animal model of Parkinson's disease” (Bioorg Med Chem Lett, 2022).
The source made the active and inactive calls. The calls are words filed in the database; no cut-off is given here.

Assays:
[1] = Inhibition of PGE2 production in LPS-induced mouse RAW264.7 cells; assay type: functional, cell-based
RAW264.7 [2] = assay: Cytotoxicity against mouse RAW264.7 cells assessed as decrease in cell viability at 1 uM; assay type: toxicity, cell-based; settings: raw264.7, 1 µM
RAW264.7 [3] = assay: Cytotoxicity against mouse RAW264.7 cells assessed as decrease in cell viability at 100 to 1000 nM; assay type: toxicity, cell-based; settings: raw264.7, 1 µM, dose 100-1000 nM
A549 = assay: Inhibition of PGE2 production in IL-1beta-induced human A549 cells assessed as decrease in PGE2 production measured after 24 hrs by enzyme immunoassay; assay type: functional, cell-based; settings: A549, 24 h
Blood = assay: Inhibition of PGE2 production in LPS-induced human whole blood; assay type: functional, tissue-based
Prostaglandin E synthase = target: T1, Prostaglandin E synthase (Homo sapiens, UniProt O14684); assay: Inhibition of human mPGES-1 assessed as reduction in PGE2 production
T1 sequence (O14684 whole entry): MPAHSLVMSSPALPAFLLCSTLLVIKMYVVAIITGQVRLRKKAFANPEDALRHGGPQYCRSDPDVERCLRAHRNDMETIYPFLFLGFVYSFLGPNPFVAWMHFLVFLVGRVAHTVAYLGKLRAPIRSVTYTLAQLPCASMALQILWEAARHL

PC-12 [4] = assay: Neuroprotective activity against 6-OHDA-induced cytotoxicity in rat PC-12 cells at 10 uM measured after 12 hrs by MTT assay; assay type: functional, cell-based
PC-12 [5] = assay: Neuroprotective activity against 6-OHDA-induced cytotoxicity in rat PC-12 cells measured after 3 hrs by MTT assay; assay type: functional; settings: read-out: ED50 (the source's name)
Mus musculus [6] = assay: Neuroprotective effect in 6-OHDA-induced lesioned mouse model of Parkinson's disease assessed as decrease in time to turn at 1 mg/kg/day, ip administered for 7 days measured by Pole test; assay type: functional, organism-based; settings: time 7.0 day
Mus musculus [7] = assay: Neuroprotective effect in 6-OHDA-induced lesioned mouse model of Parkinson's disease assessed as decrease in time for locomotion activity at 1 mg/kg/day, ip administered for 7 days measured by Pole test; assay type: functional, organism-based; settings: time 7.0 day
Mus musculus [8] = assay: Neuroprotective effect in 6-OHDA-induced lesioned mouse model of Parkinson's disease assessed as increase in latency time at 1 mg/kg/day, ip administered for 7 days measured by rotarod test; assay type: functional, organism-based; settings: time 7.0 day
Mus musculus [9] = assay: Neuroprotective effect in 6-OHDA-induced lesioned mouse model of Parkinson's disease assessed as decrease in falling frequency at 1 mg/kg/day, ip administered for 7 days measured by rotarod test; assay type: functional, organism-based; settings: time 7.0 day
Mus musculus [10] = assay: Neuroprotective activity against in 6-OHDA-induced neurotoxicity in mouse assessed as increase in tyrosine hydroxylase (TH)-positive fibers in striatum of brain at 1 mg/kg/day, ip administered for 7 days measured by immunohistochemistry analysis; assay type: functional, organism-based; settings: time 7.0 day
Mus musculus [11] = assay: Neuroprotective activity against in 6-OHDA-induced neurotoxicity in mouse assessed as increase in tyrosine hydroxylase (TH)-positive neurons in substantia nigra pars compacta of brain at 1 mg/kg/day, ip administered for 7 days measured by immunohistochemistry analysis; assay type: functional, organism-based; settings: time 7.0 day
Mus musculus [12] = assay: Neuroprotective effect in 6-OHDA-induced lesioned mouse model of Parkinson's disease assessed as decrease in time to turn at 80 mg/kg/day, po administered for 7 days measured by Pole test; assay type: functional, organism-based; settings: time 7.0 day
Mus musculus [13] = assay: Neuroprotective effect in 6-OHDA-induced lesioned mouse model of Parkinson's disease assessed as decrease in time for locomotion activity at 80 mg/kg/day, po administered for 7 days measured by Pole test; assay type: functional, organism-based; settings: time 7.0 day

SMILES: O=C(Oc1ccc([N+](=O)[O-])cc1)N(Nc1ccc(Cl)cc1)S(=O)(=O)c1ccc(Cl)cc1
- IC50 [1]: 645 nM
- Activity (RAW264.7 [2]): Non-Toxic

SMILES: Cc1cccc(NN(C(=O)Oc2ccc([N+](=O)[O-])cc2)S(=O)(=O)c2ccc(Cl)cc2)c1
- IC50 [1]: 806 nM
- Activity (RAW264.7 [2]): Non-Toxic

SMILES: O=C(Oc1ccc(OCc2ccccc2)cc1)N(Nc1cccc(Cl)c1)S(=O)(=O)c1ccc(Cl)cc1
- IC50 [1]: 41.8 nM
- Activity (RAW264.7 [2]): Non-Toxic
- Activity (RAW264.7 [3]): Non-Toxic
- IC50 (A549): 145 nM
- IC50 (Blood): 428 nM
- IC50 (Prostaglandin E synthase): 1.16 nM
- Activity (PC-12 [4]): Active
- EC50 (PC-12 [5]): 3 nM
- Activity (Mus musculus [6]): Active
- Activity (Mus musculus [7]): Active
- Activity (Mus musculus [8]): Active
- Activity (Mus musculus [9]): Active
- Activity (Mus musculus [10]): Active
- Activity (Mus musculus [11]): Active

SMILES: O=C(Oc1ccccc1)N(Nc1ccccc1)S(=O)(=O)c1ccc(Br)cc1
- Activity (RAW264.7 [2]): Non-Toxic

SMILES: O=C(Oc1ccccc1)N(Nc1ccccc1)S(=O)(=O)c1ccc(F)cc1
- Activity (RAW264.7 [2]): Non-Toxic

SMILES: CC(C)(C)c1ccc(S(=O)(=O)N(Nc2ccccc2)C(=O)Oc2ccc(OCc3ccccc3)cc2)cc1
- Activity (RAW264.7 [2]): Non-Toxic

SMILES: O=C(Oc1ccc(Oc2ccccc2)cc1)N(Nc1ccccc1)S(=O)(=O)c1ccc(-c2ccccc2)cc1
- IC50 [1]: 161 nM
- Activity (RAW264.7 [2]): Non-Toxic

SMILES: O=C(Oc1ccc(OCc2ccccc2)cc1)N(Nc1ccccc1)S(=O)(=O)c1ccc(C(F)(F)F)cc1
- IC50 [1]: 47.1 nM
- Activity (RAW264.7 [2]): Non-Toxic

SMILES: Cc1cc(C)c(S(=O)(=O)N(Nc2ccccc2)C(=O)Oc2ccc(OCc3ccccc3)cc2)c(C)c1
- Activity (RAW264.7 [2]): Non-Toxic

SMILES: O=C(Oc1ccc(OCc2ccccc2)cc1)N(Nc1ccccc1)S(=O)(=O)c1ccc(Cl)cc1
- IC50 [1]: 59.1 nM
- Activity (RAW264.7 [2]): Non-Toxic

SMILES: CCc1ccc(S(=O)(=O)N(Nc2ccccc2)C(=O)Oc2ccc(Oc3ccccc3)cc2)cc1
- IC50 [1]: 434 nM
- Activity (RAW264.7 [2]): Non-Toxic

SMILES: Cc1cc(C)c(S(=O)(=O)N(Nc2ccccc2)C(=O)Oc2cccc3c2CCC3)c(C)c1
- IC50 [1]: 313 nM
- Activity (RAW264.7 [2]): Non-Toxic

SMILES: Cc1ccccc1NN(C(=O)Oc1ccccc1)S(=O)(=O)c1ccc(Cl)cc1
- IC50 [1]: > 1000 nM
- Activity (RAW264.7 [2]): Non-Toxic

SMILES: O=C(Oc1ccc(OCc2ccccc2)cc1)N(Nc1ccccc1)S(=O)(=O)c1ccc(-c2ccccc2)cc1
- IC50 [1]: 93 nM
- Activity (RAW264.7 [2]): Non-Toxic

SMILES: O=C(Oc1cccc2c1CCC2)N(Nc1ccccc1)S(=O)(=O)c1ccc(C(F)(F)F)cc1
- IC50 [1]: 246 nM
- Activity (RAW264.7 [2]): Non-Toxic

SMILES: Cc1cc(C)c(S(=O)(=O)N(Nc2ccccc2)C(=O)Oc2ccc(Oc3ccccc3)cc2)c(C)c1
- IC50 [1]: 177 nM
- Activity (RAW264.7 [2]): Non-Toxic

SMILES: O=C(Oc1ccc([N+](=O)[O-])cc1)N(Nc1cccc(Cl)c1)S(=O)(=O)c1ccc(Cl)cc1
- IC50 [1]: 759 nM
- Activity (RAW264.7 [2]): Non-Toxic

SMILES: Cc1ccccc1NN(C(=O)Oc1ccccc1)S(=O)(=O)c1ccccc1
- IC50 [1]: 1000 nM
- Activity (RAW264.7 [2]): Non-Toxic

SMILES: Cc1ccc(S(=O)(=O)N(Nc2ccccc2)C(=O)Oc2cccc3c2CCC3)cc1
- IC50 [1]: 398 nM
- Activity (RAW264.7 [2]): Non-Toxic

SMILES: N[C@@H](Cc1ccc(O)c(O)c1)C(=O)O
- Activity (Mus musculus [12]): Active
- Activity (Mus musculus [13]): Active

SMILES: O=C(Oc1cccc2c1CCC2)N(Nc1ccccc1)S(=O)(=O)c1ccc(Cl)cc1
- IC50 [1]: 429 nM
- Activity (RAW264.7 [2]): Non-Toxic
